{"source": "patent EP0103895A2", "about": "“Novel hydroxylamine derivatives, production and use thereof” (MEIJI SEIKA KABUSHIKI KAISHA, priority 1982, dated 1984)", "key": {"[1]": {"test_system": "Diphyllobothrium erinacei", "assay": "Test of anthelmintic effect against Diphyllobothrium erinacei (tapeworm) in experimentally infected cats (Test Examples A5, B5, C5, D5)"}, "[2]": {"test_system": "Liver fluke; Fasciola hepatica (F. hepatica)", "assay": "Test of anthelmintic effect against rat infected experimentally with liver fluke (Test Examples A11, B11, C11, D11)", "format": "in vivo"}}}
{"smiles": "C=CCN(OC)C(C)=O", "note": "[Compound B1, N-allyl-N-acetyl-O-methylhydroxylamine]", "values": [{"measurement": "Number of worm bodies remaining in enteron", "setting": "[1]; cats infected with 5 plerocercoids, 50 mg/Kg x 5 times orally, autopsy ten days after administration, one value per cat", "value": 0}, {"measurement": "Worm egg detection on 10th day after administration", "setting": "[1]; cats, 50 mg/Kg x 5 orally, one value per cat (Table B7)", "value": "-"}, {"measurement": "anthelmintic effect", "setting": "[1]; cats, 5 continuous administrations of 50 mg/Kg", "value": "marked anthelmintic effects"}, {"measurement": "Condition of fluke body", "setting": "[2]; rat, 50 mg/Kg x 5", "value": "dead"}, {"measurement": "Presence or absence of fluke egg in fecal matter On 21st day after the last administration", "setting": "[2]; rat, 50 mg/Kg x 5", "value": "-"}, {"measurement": "anthelmintic effect", "setting": "[2]; rats, five administrations in a dose of 50 mg/Kg each", "value": "marked antihelmintic effect"}]}
